In the METLIN SMRT retention time set (Domingo-Almenara et al. 2019):

Assay: gradient 5% acetonitrile 3 min, to 50% in 2 min, to 85% in 15 min, held 3 min, 100 µL/min
Conditions: column: Zorbax Extend-C18 2.1 x 50 mm; eluents: water / acetonitrile, 0.1% formic acid
Outline: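 Retention times of pure standards were taken from adduct peaks that were selected by computer and manually inspected. Over 3 months, mixtures of ~100 molecules were run by HPLC–quadrupole time-of-flight mass spectrometry in positive and negative ionization mode. The Zorbax Extend-C18 column (2.1 × 50 mm, 1.8 μm) ran at 100 μL/min in water and acetonitrile, each containing 0.1% formic acid, with 40 μL dead volume and 900 μL dwell volume.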

O=C(Cn1nc2c(Oc3cccc(F)c3)nccn2c1=O)Nc1ccccc1F
RP-LC retention time: 815 s

C=CCNC(=O)c1cn(-c2ccc(-c3nc(C(C)(C)C)no3)cn2)cn1
RP-LC retention time: 883 s

COC(=O)c1sccc1NC(=O)N1CCCn2nc(-c3cccc(Cl)c3)cc2C1
RP-LC retention time: 972 s

O=c1n(Cc2cccc(F)c2)nc2c(S(=O)(=O)N3CCOCC3)cccn12
RP-LC retention time: 741 s

Cc1cc(NC(=O)C2CCC2)nn1Cc1ccccc1
RP-LC retention time: 841 s

COc1cc(NC(=O)N2CCN(c3cc(-c4cccc(OC)c4)ncn3)CC2)cc(OC)c1
RP-LC retention time: 620 s

O=C(Cn1nc2c3cc(F)ccc3ncn2c1=O)Nc1ccc(F)c(Cl)c1
RP-LC retention time: 706 s

CCOc1cc(=O)n2c(c1C(=O)NCC1CCCCC1)CCCCC2
RP-LC retention time: 772 s

O=C(NC1CCCCC1)c1cccc(Nc2c(-c3ccc(F)cc3)nc3cnccn23)c1
RP-LC retention time: 848 s

O=C(Nc1ccc2c(c1)C(=O)N1CCCCC1CCO2)Nc1ccccc1C(F)(F)F (stereo not given)
RP-LC retention time: 832 s

O=c1ccc(-c2ccccc2)nn1Cc1nc(-c2ccc(Br)cc2)no1
RP-LC retention time: 1100 s

COc1ccc(OC)c(CNC(=O)CN2C(=O)C(C)(C)c3cc(C)ccc32)c1
RP-LC retention time: 689 s

Cc1ccccc1NC(=O)C1CCN(S(=O)(=O)c2ccc3c(c2)NC(=O)C(C)O3)CC1 (stereo not given)
RP-LC retention time: 815 s

Cc1ccc(S(=O)(=O)N2CC(Cc3nncn3C3CCCC3)C2)cc1F
RP-LC retention time: 747 s

CCc1nc(NCc2cccnc2)ncc1C(=O)O
RP-LC retention time: 560 s

Cc1ccc(NC(=O)CC(=O)Nc2ccc3nc4n(c(=O)c3c2)CCCCC4)cc1F
RP-LC retention time: 750 s

Cc1ccc(-c2noc(Cc3nnc(-c4cc(F)cc(F)c4)o3)n2)cc1C
RP-LC retention time: 1170 s

CCN1C(=O)c2ccccc2Oc2ccc(C(=O)NCc3ccc4c(c3)OCO4)cc21
RP-LC retention time: 1170 s

Cc1ccc(CC(=O)N2CCc3cc(-c4csc(C)n4)ccc32)cc1
RP-LC retention time: 1070 s

CC1CCN(C(=O)C2=NN(Cc3nc(C4CC4)no3)c3ccccc3S2(=O)=O)CC1
RP-LC retention time: 904 s

CC(C)n1cnc2c(C(=O)N[C@H]3CN4CCC3CC4)cc(Cl)cc21
RP-LC retention time: 692 s

Cn1cc2c3c(cccc31)CN(C(=O)c1ccccc1Br)CC2
RP-LC retention time: 968 s

COc1ccc(CNC(=O)C2(C)CCN(C(=O)Nc3ccc(C)c(F)c3)CC2)cc1
RP-LC retention time: 880 s

COc1ccc(Cl)cc1NC(=O)N1C[C@@H](F)C[C@H]1C(=O)N1CCc2ccccc2C1
RP-LC retention time: 933 s

COc1cccc(NC(=O)c2sc(-c3cn(C)c4ncccc34)nc2C)c1
RP-LC retention time: 927 s

O=C(c1ccc(Br)cc1)N1CCN(c2nnc3ccccn23)CC1
RP-LC retention time: 653 s

COc1ccc(-c2nc3cnccn3c2Nc2ccc(C(=O)NCC3CCCO3)cc2)cc1OC (stereo not given)
RP-LC retention time: 645 s

O=C(CCc1c[nH]c2ccccc12)Nc1cccc(-c2nnc3n2CCCC3)c1
RP-LC retention time: 682 s

OC(CN1CCN(c2ccccn2)CC1)c1ccc(Cl)cc1 (stereo not given)
RP-LC retention time: 563 s

CCc1nc(-c2ccc3c(c2)CCN3C(=O)Cc2cccc(F)c2)no1
RP-LC retention time: 1030 s

Cc1onc(-c2cccc(Br)c2)c1C(=O)NCCCN1CCOCC1
RP-LC retention time: 629 s

COc1cccc(Cn2nc3n(CCC(=O)NC4CCCC4)c(=O)c4ccccc4n3c2=O)c1
RP-LC retention time: 873 s

Cc1ccc(S(=O)(=O)N2CCc3nc(-c4ccc(F)cc4)ncc3C2)cc1C
RP-LC retention time: 1170 s

O=C(NC(NC(=O)c1ccccc1)c1ccccc1)c1ccccc1
RP-LC retention time: 765 s

CCCN1CCCCc2cc(C(=O)NCC(N)=O)sc21
RP-LC retention time: 686 s

CCC(=O)N1CCc2cc(N3CC(C(=O)NCc4ccccc4Cl)CC3=O)ccc21 (stereo not given)
RP-LC retention time: 744 s

Cn1c(CNC(=O)C2CCC2)nc2c1CN(C(=O)c1ccc(C(F)(F)F)s1)CC2
RP-LC retention time: 656 s

COc1ccc(NC(=O)Cc2c(C)nn(-c3nc(-c4ccccc4)cs3)c2C)c(OC)c1
RP-LC retention time: 1160 s

O=c1c(NC2CCCCCC2)nc2ccncc2n1Cc1ccccc1
RP-LC retention time: 807 s

CCOC(=O)C1=C(C)NC2=C(C(=O)C(C(=O)OC)C(C)C2)C1c1cccc(OC)c1 (stereo not given)
RP-LC retention time: 846 s

COc1ccc(-c2ncc3c(n2)CCN(C(=O)Nc2cccc(C(C)=O)c2)C3)cc1
RP-LC retention time: 810 s

COc1cccc(-c2cc(C(=O)N3CCN(c4ccc(N5CCOCC5)nn4)CC3)[nH]n2)c1
RP-LC retention time: 610 s

Cc1cc(NC(=O)C2CCCN(c3nc4ccsc4c(=O)n3Cc3ccc(F)cc3)C2)ccc1F (stereo not given)
RP-LC retention time: 1050 s

COc1ccc(S(=O)(=O)N2CCCC(C(=O)Nc3cc(C)ccc3C)C2)cc1Cl (stereo not given)
RP-LC retention time: 1040 s

Cn1c(=O)c2c(ncn2CC(=O)N2CCCn3nc(-c4ccccc4)cc3C2)n(C)c1=O
RP-LC retention time: 647 s

Cc1cc(C(=O)N2CCN(c3cccc(Cl)c3)CC2)n(-c2ccccc2)n1
RP-LC retention time: 1070 s

O=C(NCC1(CO)CC1)c1cc(-c2ccccc2)on1
RP-LC retention time: 703 s

O=C(COc1ccccc1)N1CCN(S(=O)(=O)c2cc3c4c(c2)CCC(=O)N4CCC3)CC1
RP-LC retention time: 782 s

Cn1cccc(C(=O)Nc2ccc(N3CCCS3(=O)=O)cc2)c1=O
RP-LC retention time: 644 s

Cc1oc(-c2ccc(C(=O)N3CCN(C)CC3)cc2)nc1CS(=O)(=O)c1ccccc1
RP-LC retention time: 608 s

Cc1ccccc1S(=O)(=O)N1CCC(c2noc(-c3cccnc3)n2)C1 (stereo not given)
RP-LC retention time: 908 s

CC(C)S(=O)(=O)c1ccc(CC(=O)N2CCCC(c3nnc(C(F)(F)F)o3)C2)cc1 (stereo not given)
RP-LC retention time: 750 s

CCOc1ccc(N2CC(c3nc(-c4cc(OC)c(OC)c(OC)c4)no3)CC2=O)cc1 (stereo not given)
RP-LC retention time: 954 s

CCC(=O)N1CCCn2nc(-c3ccc(F)cc3)cc2C1
RP-LC retention time: 741 s

O=C(NCc1ccc(F)cc1)c1ccc(=O)n(CCN2CCOCC2)c1
RP-LC retention time: 599 s

Cc1cc(NS(=O)(=O)c2cc3n(c2)CCN(C(C)C)C3=O)ccc1F
RP-LC retention time: 1320 s

CCOc1ccc(-c2nc(Cn3nnc(C(=O)Nc4ccccc4OC)c3C)c(C)o2)cc1
RP-LC retention time: 1150 s

CC(C)CNC(=O)N1CCn2nnc(CCC(=O)N3CCOCC3)c2C1
RP-LC retention time: 604 s

O=C(Nc1ccc([N+](=O)[O-])cc1Cl)c1cc(Cl)ccc1O
RP-LC retention time: 1130 s

COc1ccc(-c2cc3c4nnc(SCC(=O)NCc5ccc(SC)cc5)n4ccn3n2)cc1
RP-LC retention time: 832 s

O=C(C1CCC1)N1CCc2sc(S(=O)(=O)NCc3ccccc3Cl)cc2C1
RP-LC retention time: 923 s

COc1ccc(OC)c(CNC(=O)C2CCCN(c3ccc(-c4ccccc4)nn3)C2)c1 (stereo not given)
RP-LC retention time: 704 s

CCc1noc2nc(C)nc(N3CCCC(C(=O)NCCN4CCCC4)C3)c12 (stereo not given)
RP-LC retention time: 597 s

O=C(NC1CC1)c1ccc(N2CCC(NCc3ccc(F)c(F)c3)C2)nc1 (stereo not given)
RP-LC retention time: 567 s

COCCC(=O)Nc1cnn(-c2ncc(N3CCCC3)cn2)c1
RP-LC retention time: 642 s
